Results taken from patent publication US20110224205A1 (NATIONAL TAIWAN UNIVERSITY, priority 2010, published 2011).
Where two headings read alike, the source gives them in different places.

Tests used:
[1] = tested on: IEC-18 cells; assay: MTT assay, IEC-18 intestinal epithelial cells; assay type: cell-based, rat
Procedure: (§1) A MTT [3-(4,5-dimethylthiazolyl-2)-2,5-diphenyltetrazolium bromide] (Sigma, St Louis, Mo.) assay was performed to determine cell proliferation. Briefly, CL1-5, A549, PC-9, H1650, H1975 and IEC-18 cells were plated in 96-well plates at a density of 5×10^3 cells/well. […] MTT solution to a final concentration in the culture medium 0.5 mg/ml was then added to the wells. After a further 1.5 h of incubation, the medium was removed and DMSO was added to the plates.

[2] = tested on: active-p38 in IEC-18 cells; assay: Western blot active-p38, IEC-18; assay type: cell-based, rat
[3] = tested on: EGFR, pEGFR, AKT, pAKT in CL1-5 cells; assay: Western blot EGFR signaling, CL1-5; assay type: cell-based, human
[4] = tested on: A549 cells; assay type: cell-based, human
Procedure: as §1

[5] = tested on: CL1-5 cells; assay type: cell-based, human
Procedure: as §1

[6] = tested on: H1975 cells; assay type: cell-based, human
Procedure: as §1

[7] = tested on: H1650 cells; assay type: cell-based, human
Procedure: as §1

[8] = tested on: CL1-5 tumor tissue
[9] = tested on: H1975 cells; conditions: 15 μM curcumin without gefitinib
[10] = tested on: pEGFR, pAKT in H1299 cells; assay: Western blot EGFR signaling, H1299; assay type: cell-based, human; conditions: gefitinib 1 μM alone, curcumin 10 and 15 μM alone, or gefitinib 1 μM + curcumin 15 μM
[11] = tested on: EGFR protein in lung adenocarcinoma cells; assay: EGFR degradation (Western blot) and ubiquitination (immunoprecipitation); assay type: cell-based; conditions: without MG132
[12] = Adverse gastrointestinal effects and survival in xenograft study
[13] = tested on: H1299 cells; assay type: cell-based, human
[14] = tested on: EGFR mRNA in CL1-5 cells; assay: Real-time quantitative RT-PCR of EGFR; assay type: cell-based, human; conditions: CL1-5, 1-20 μM, 24 h
[15] = tested on: CL1-5 lung adenocarcinoma xenograft; assay: CL1-5 xenograft tumor growth; assay type: in vivo, SCID mice; conditions: control 638.55
[16] = tested on: pAKT, cyclin D1 in H1975 cells; assay: Western blot EGFR signaling, H1975; assay type: cell-based, human; conditions: H1975, curcumin 1-20 μM, EGF 20 ng/ml
[17] = tested on: EGFR, pEGFR, AKT, pAKT in A549 cells; assay: Western blot EGFR signaling, A549; assay type: cell-based, human
[18] = tested on: active-p38 in CL1-5 cells; assay: Western blot active-p38, CL1-5; assay type: cell-based, human; conditions: CL1-5, gefitinib 0-20 μM
[19] = SCID, mouse, in vivo, po, 3 weeks

Cc1ccc(-n2nc(C(C)(C)C)cc2NC(=O)Nc2ccc(OCCN3CCOCC3)c3ccccc23)cc1 [BIRB 796, reference compound]
rescue from toxic effect of gefitinib (cell survival) ([1]; IEC-18, curcumin 5 μM, BIRB 796 10 nM, gefitinib 30 and 40 μM): rescue the cells from this toxic effect of gefitinib | active-p38 expression on gefitinib-treated cells ([2]; IEC-18, curcumin 5 μM, BIRB 796 10 nM): significantly decrease the active-p38 expression

CCOC(=O)CC/C(C(=O)/C=C/c1ccc(O)c(OC)c1)=C(O)\C=C\c1ccc(O)c(OC)c1 [JC-15]
protection against gefitinib-induced intestinal cell death (FIG. 10) [1]: protective effect to reduce gefitinib-induced intestinal cell death

COc1cc(/C=C/C(=O)C(C(C)=O)C(O)/C=C/c2ccc(O)c(OC)c2)ccc1O (centres unmarked) [LL68]
protection against gefitinib-induced intestinal cell death (FIG. 10) [1]: protective effect to reduce gefitinib-induced intestinal cell death

COc1cc(/C=C/C(O)=C/C(=O)/C=C/c2ccc(O)cc2)ccc1O [LL-18]
protection against gefitinib-induced intestinal cell death (FIG. 10) [1]: protective effect to reduce gefitinib-induced intestinal cell death

COc1cc(/C=C/C(=O)/C=C(O)/C=C/c2ccc(O)c(OC)c2)ccc1O [curcumin, diferuloylmethane]
EGFR, pEGFR, AKT, and pAKT protein expression ([3]; CL1-5, curcumin 1-20 μM, EGF 20 ng/ml): reduce EGFR, pEGFR, AKT, and pAKT protein expression | pEGFR and pAKT (FIG. 4B) ([3]; CL1-5, gefitinib 1 μM alone, curcumin 10 and 15 μM alone, or gefitinib 1 μM + curcumin 15 μM): minimal suppressive effect | cell proliferation (FIG. 4A) [4]: slight inhibition of cell proliferation | proliferation (FIG. 1A right) ([4]; A549, curcumin alone): inhibited by curcumin in a concentration-dependent manner | cell proliferation (FIG. 4A) [5]: slight inhibition of cell proliferation | proliferation (FIG. 1A right) ([5]; CL1-5, curcumin alone): inhibited by curcumin in a concentration-dependent manner | cell proliferation (FIG. 4A) [6]: slight inhibition of cell proliferation | proliferation (FIG. 1A right) ([6]; H1975, curcumin alone): inhibited by curcumin in a concentration-dependent manner | cell proliferation (FIG. 4A) [7]: slight inhibition of cell proliferation | proliferation (FIG. 1A right) ([7]; H1650, curcumin alone): inhibited by curcumin in a concentration-dependent manner | levels of EGFR and AKT in the tumors ([8]; Western blot of tumor tissue): decreased | PCNA marker in tumor tissue ([8]; immunohistochemical staining): decreased | cell apoptosis in tumor tissue (TUNEL) ([8]; in situ cell death detection, vs control (and gefitinib only)): induced cell apoptosis | cells in apoptosis [9]: about 90% | pEGFR and pAKT (FIG. 4B) [10]: minimal suppressive effect | rescue from toxic effect of gefitinib (cell survival) [1]: rescue the cells from this toxic effect of gefitinib | EGFR protein expression [11]: inhibit the EGFR protein expression in a dose-dependent manner | morphology / full length of the intestine [12]: no obvious differences | cell proliferation (FIG. 4A) [13]: slight inhibition of cell proliferation | proliferation (FIG. 1A right) ([13]; H1299, curcumin alone): inhibited by curcumin in a concentration-dependent manner | EGFR mRNA expression [14]: reduce EGFR mRNA expression in a concentration-dependent manner | average tumor size at the end of the study ([15]; curcumin 1 g/kg orally once daily): 354.91 mm^3 | AKT phosphorylation [16]: not altered | level of cyclin D1 [16]: significantly reduced | EGFR, pEGFR, AKT, and pAKT protein expression ([17]; A549, curcumin 1-20 μM, EGF 20 ng/ml): reduce EGFR, pEGFR, AKT, and pAKT protein expression | pEGFR and pAKT (FIG. 4B) ([17]; A549, gefitinib 1 μM alone, curcumin 10 and 15 μM alone, or gefitinib 1 μM + curcumin 15 μM): minimal suppressive effect

COc1cc2ncnc(Nc3ccc(F)c(Cl)c3)c2cc1OCCCN1CCOCC1 [gefitinib, N-(3-Chloro-4-fluoro-phenyl)-7-methoxy-6-(3-morpholin-4-ylpropoxy)quinazolin-4-amine]
cell proliferation (FIG. 4A) [4]: slight inhibition of cell proliferation | IC25 for IEC-18 cell ([1]; IEC-18): 30 µM | IEC-18 cell survival ([1]; gefitinib 30 and 40 μM, 24 h): significantly reduce IEC-18 cell survival | p38 activation [18]: did not elevate the p38 activation | survival rate [19]: 33% | body weight [12]: dramatic body weight lost | diarrhea [12]: obviously diarrhea side effect | morphology / full length of the intestine [12]: shorter and thinner | average tumor size at the end of the study ([15]; gefitinib 120 mg/kg orally once daily): 138.32 mm^3 | active-p38 ([2]; IEC-18, gefitinib 0-20 μM): significant increased in a dose dependent manner
